From patent US7482363B2, “Piperidine derivatives useful as modulators of chemokine receptor activity” (AstraZeneca AB, priority 2002, dated 2009) come the findings set out here.

In test [1] the test system is Human eosinophils (eotaxin mediated chemotaxis). In words: Human eosinophil chemotaxis. Format: cell-based. Here is the method:
Human Eosinophil Chemotaxis
Human eosinophils were isolated from EDTA anticoagulated peripheral blood as previously described (Hansel et al., J. Immunol. Methods, 1991, 145, 105-110). The cells were resuspended at 10×10^6 ml^−1 in RPMI containing 200 IU/ml penicillin, 200 μg/ml streptomycin sulphate and supplemented with 10% HIFCS, at room temperature.
Eosinophils (700 μl) were pre-incubated for 15 mins at 37° C. with 7 μl of either vehicle or compound (100× required final concentration in 10% DMSO). The chemotaxis plate (ChemoTx, 3 μm pore, Neuroprobe) was loaded by adding 28 μl of a concentration of eotaxin (0.1 to 100 nM) containing a concentration of a compound according to the Examples or solvent to the lower wells of the chemotaxis plate. The filter was then placed over the wells and 25 μl of eosinophil suspension were added to the top of the filter. The plate was incubated for 1 hr at 37° C. in a humidified incubator with a 95% air/5% CO2 atmosphere to allow chemotaxis.
The medium, containing cells that had not migrated, was carefully aspirated from above the filter and discarded. The filter was washed once with phosphate buffered saline (PBS) containing 5 mM EDTA to remove any adherent cells. […] The number of eosinophils migrating was quantified according to the method of Strath et al., J. Immunol. […]

The target of another test is T1, human H1 receptor (Homo sapiens, UniProt P35367).
T1 construct: purchased Euroscreen SA, Brussels, Belgium ES-390-M; host or cells: CHO-K1
T1 sequence (P35367 whole entry): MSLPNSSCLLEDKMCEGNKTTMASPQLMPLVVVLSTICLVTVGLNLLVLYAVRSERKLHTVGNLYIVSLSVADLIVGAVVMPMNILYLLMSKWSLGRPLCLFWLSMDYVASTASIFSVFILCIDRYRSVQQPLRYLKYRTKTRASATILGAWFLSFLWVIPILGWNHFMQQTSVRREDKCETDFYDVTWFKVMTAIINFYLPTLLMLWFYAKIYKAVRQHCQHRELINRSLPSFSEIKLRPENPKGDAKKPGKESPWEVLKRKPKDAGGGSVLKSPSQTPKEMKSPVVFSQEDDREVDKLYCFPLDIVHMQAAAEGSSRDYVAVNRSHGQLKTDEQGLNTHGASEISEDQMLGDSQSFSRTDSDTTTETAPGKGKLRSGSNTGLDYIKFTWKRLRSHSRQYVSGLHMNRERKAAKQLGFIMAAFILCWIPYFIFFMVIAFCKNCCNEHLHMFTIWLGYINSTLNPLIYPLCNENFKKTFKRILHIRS
In words: Histamine H1 receptor binding, competition displacement of [3H]-pyrilamine. To be noted: 1 nM [3H]-pyrilamine, membranes of recombinant CHO-K1 cells expressing the human H1 receptor; read-out: H1 antagonism pKi (converted). How it is done:
Histamine H1 receptor binding activity of compounds of the invention was assessed by competition displacement of 1 nM [3H]-pyrilamine (Amersham, Bucks, Product code TRK 608, specific activity 30 Ci/mmol) to 2 μg membranes prepared from recombinant CHO-K1 cells expressing the human H1 receptor (Euroscreen SA, Brussels, Belgium, product code ES-390-M) in assay buffer (50 mM Tris pH 7.4 containing 2 mM MgCl2, 250 mM sucrose and 100 mM NaCl) for 1 hour at room temperature.
Background: In a radioligand displacement assay an active substance lowers the binding of a labelled ligand.

With `COc1cccc(OC)c1C(C(=O)O)N1CCC(N2CCC(Oc3ccc(Cl)c(Cl)c3)CC2)CC1` (stereo not drawn) [Example 2, 4-(3,4-dichlorophenoxy)-α-(2,6-dimethoxyphenyl)-[1,4′-bipiperidine]-1′-acetic acid], the “% Inhibition (3 nM Human Eotaxin)” value in test [1] came to 90%. In addition, the Ki at human H1 receptor is 158 nM.
`Cc1cc(Cl)ccc1OC1CCN(C2CCN(C(C(=O)O)c3ccccc3)CC2)CC1` (stereo not drawn) [Example 3, 4-(4-chloro-2-methylphenoxy)-α-phenyl-[1,4′-bipiperidine]-1′-acetic acid]: in test [1], the “% Inhibition (3 nM Human Eotaxin)” value is reported as 105%. Further, at human H1 receptor, the Ki is 50.1 nM.
